Data from the NIST ThermoML archive (doi:10.1016/j.fluid.2014.01.019).
Numbers after ± are expanded uncertainties.

Conditions: Liquid; for mass density: 101.33 kPa, Vibrating tube method; for speed of sound: 101 kPa, Frequency=2 MHz, Linear variable-path acoustic interferometer

Row | Compound | mass density (298.15 K) [kg/m3] | speed of sound (303.15 K) [m/s] | mass density (303.15 K) [kg/m3] | mass density (308.15 K) [kg/m3] | speed of sound (313.15 K) [m/s] | mass density (313.15 K) [kg/m3]
1 | Cc1ccccc1Cl [2-chlorotoluene] | 1076.47 ± 0.15 | 1285 ± 8 | 1072.86 ± 0.15 | 1068.21 ± 0.15 | 1248 ± 8 | 1064.01 ± 0.15
2 | Cc1ccccc1[N+](=O)[O-] [2-nitrotoluene] | 1159.6 ± 0.19 | 1439 ± 9 | 1153.29 ± 0.18 | 1149.78 ± 0.18 | 1403 ± 9 | 1144.91 ± 0.18
3 | Cc1cccc(Cl)c1 [3-chlorotoluene] | 1067.25 ± 0.15 | 1281 ± 8 | 1062.79 ± 0.15 | 1058.29 ± 0.15 | 1247 ± 8 | 1053.49 ± 0.15
4 | Cc1cccc([N+](=O)[O-])c1 [3-nitrotoluene] | 1152.23 ± 0.18 | 1442 ± 9 | 1147.67 ± 0.18 | 1142.67 ± 0.18 | 1409 ± 9 | 1137.98 ± 0.18
5 | Cc1ccc(Cl)cc1 [4-chlorotoluene] | 1064.93 ± 0.16 | 1274 ± 8 | 1059.56 ± 0.16 | 1054.27 ± 0.15 | 1237 ± 8 | 1049.29 ± 0.15
6 | OCc1ccccc1 [benzenemethanol] | 1041.44 ± 0.14 | 1514 ± 9 | 1037.67 ± 0.14 | 1033.75 ± 0.14 | 1485 ± 9 | 1029.91 ± 0.14
